IC50 and JAK2/JAK1 data for 16 compounds are collected here from patent US20220378791A1, “JAK1 INHIBITORS FOR THE TREATMENT OF MYELODYSPLASTIC SYNDROMES” (Incyte Corporation, priority 2014, published 2022).

The target of assay [1] is T1, human JAK1 (a.a. 837-1142) (Homo sapiens, UniProt P23458).
T1 construct: human JAK1 (a.a. 837-1142); His tag (N); made in house; host or cells: insect cells (baculovirus)
The experiment in a line: In vitro JAK kinase assay (HTRF), JAK1. The class given is biochemical. The conditions noted are these: 1 mM ATP. The procedure: Compounds herein were tested for inhibitory activity of JAK targets according to the following in vitro assay described in Park et al., Analytical Biochemistry 1999, 269, 94-104. The catalytic domains of human JAK1 (a.a. 837-1142), JAK2 (a.a. 828-1132) and JAK3 (a.a. 781-1124) with an N-terminal His tag were expressed using baculovirus in insect cells and purified. The catalytic activity of JAK1, JAK2 or JAK3 was assayed by measuring the phosphorylation of a biotinylated peptide. The phosphorylated peptide was detected by homogenous time resolved fluorescence (HTRF). […] Reactions were carried out at room temperature for 1 hour and then stopped with 20 μL 45 mM EDTA, 300 nM SA-APC, 6 nM Eu-Py20 in assay buffer (Perkin Elmer, Boston, Mass.). Binding to the Europium labeled antibody took place for 40 minutes and HTRF signal was measured on a Fusion plate reader (Perkin Elmer, Boston, Mass.).

The target of assay [2] is T2, human JAK2 (a.a. 828-1132) (Homo sapiens, UniProt O60674).
T2 construct: JAK2 (a.a. 828-1132); His tag (N); made in house; host or cells: insect cells (baculovirus)
In words: In vitro JAK kinase assay (HTRF), JAK2. The conditions noted are these: IC50 ratio, selectivity for JAK1 over JAK2, 1 mM ATP. It is filed as biochemical. Here is the method:
Compounds herein were tested for inhibitory activity of JAK targets according to the following in vitro assay described in Park et al., Analytical Biochemistry 1999, 269, 94-104. The catalytic domains of human JAK1 (a.a. 837-1142), JAK2 (a.a. 828-1132) and JAK3 (a.a. 781-1124) with an N-terminal His tag were expressed using baculovirus in insect cells and purified. The catalytic activity of JAK1, JAK2 or JAK3 was assayed by measuring the phosphorylation of a biotinylated peptide. The phosphorylated peptide was detected by homogenous time resolved fluorescence (HTRF). […] Reactions were carried out at room temperature for 1 hour and then stopped with 20 μL 45 mM EDTA, 300 nM SA-APC, 6 nM Eu-Py20 in assay buffer (Perkin Elmer, Boston, Mass.). Binding to the Europium labeled antibody took place for 40 minutes and HTRF signal was measured on a Fusion plate reader (Perkin Elmer, Boston, Mass.). See Table 2 for data for compounds of the examples as tested by the assay of Example A at 1 mM ATP.
A general note: Time-resolved FRET reads energy transfer from a long-lived donor to a nearby acceptor.

A value given as a limit tells only on which side of the number the result lay.

T1 sequence (P23458 849-1154): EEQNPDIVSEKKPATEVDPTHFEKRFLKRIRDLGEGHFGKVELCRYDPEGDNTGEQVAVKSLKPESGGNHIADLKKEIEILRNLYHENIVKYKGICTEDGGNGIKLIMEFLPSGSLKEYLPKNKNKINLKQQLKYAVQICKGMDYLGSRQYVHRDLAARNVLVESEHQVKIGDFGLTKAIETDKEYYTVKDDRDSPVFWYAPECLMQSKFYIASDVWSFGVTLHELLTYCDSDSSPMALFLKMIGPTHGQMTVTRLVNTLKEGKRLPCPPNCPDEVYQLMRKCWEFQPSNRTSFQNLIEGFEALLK
T2 sequence (O60674 828-1132): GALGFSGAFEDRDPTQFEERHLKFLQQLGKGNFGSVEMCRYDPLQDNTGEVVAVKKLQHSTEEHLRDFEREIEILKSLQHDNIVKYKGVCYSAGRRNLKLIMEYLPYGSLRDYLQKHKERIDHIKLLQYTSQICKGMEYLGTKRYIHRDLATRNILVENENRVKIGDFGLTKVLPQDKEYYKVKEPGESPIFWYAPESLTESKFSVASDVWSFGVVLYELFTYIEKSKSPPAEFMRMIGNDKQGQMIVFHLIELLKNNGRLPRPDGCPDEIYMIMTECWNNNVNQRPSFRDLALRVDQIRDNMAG

On to `N#CCC(C1CCN(c2cccc(Cl)n2)C1)n1cc(-c2ncnc3[nH]ccc23)cn1` (single isomer, unassigned) [Example 1, 3-[1-(6-chloropyridin-2-yl)pyrrolidin-3-yl]-3-[4-(7H-pyrrolo[2,3-d]pyrimidin-4-yl)-1H-pyrazol-1-yl]propanenitrile], for which the IC50 in assay [1] was under 10 nM. Also, the JAK2/JAK1 in assay [2] is over 10.
In assay [1], `N#CCC(C1CCN(c2nc3cccnc3o2)C1)n1cc(-c2ncnc3[nH]ccc23)cn1` (single isomer, unassigned) [Example 2, 3-(1-[1,3]oxazolo[5,4-b]pyridin-2-ylpyrrolidin-3-yl)-3-[4-(7H-pyrrolo[2,3-d]pyrimidin-4-yl)-1H-pyrazol-1-yl]propanenitrile] returned an IC50 of under 10 nM. Moreover, the JAK2/JAK1 in assay [2] is recorded as over 10.
Compound `N#CCC(CN1CCN(C(=O)c2ccc(C#N)cc2F)CC1)n1cc(-c2ncnc3[nH]ccc23)cn1` (single isomer, unassigned) [Example 3, 4-[(4-{3-cyano-2-[4-(7H-pyrrolo[2,3-d]pyrimidin-4-yl)-1H-pyrazol-1-yl]propyl}piperazin-1-yl)carbonyl]-3-fluorobenzonitrile] came in with a half-maximal inhibitory concentration (IC50) in assay [1] of under 10 nM. Further, the JAK2/JAK1 in assay [2] is listed as over 10.
The compound `N#CCC(CN1CCN(C(=O)c2ccc(C#N)cc2F)CC1)n1ccc(-c2ncnc3[nH]ccc23)c1` (single isomer, unassigned) [Example 4, 4-[(4-{3-cyano-2-[3-(7H-pyrrolo[2,3-d]pyrimidin-4-yl)-1H-pyrrol-1-yl]propyl}piperazin-1-yl)carbonyl]-3-fluorobenzonitrile] gave an IC50 in assay [1] of under 10 nM. In assay [2], the JAK2/JAK1 is over 10.
In assay [1], `N#CCC1(n2cc(-c3ncnc4[nH]ccc34)cn2)CN(C2CCN(C(=O)c3ccnc(C(F)(F)F)c3F)CC2)C1` [Example 5, {1-{1-[3-Fluoro-2-(trifluoromethyl)isonicotinoyl]piperidin-4-yl}-3-[4-(7H-pyrrolo[2,3-d]pyrimidin-4-yl)-1H-pyrazol-1-yl]azetidin-3-yl}acetonitrile] returned a concentration for half-maximal inhibition (IC50) of under 10 nM. The JAK2/JAK1 in assay [2] is given as over 10.
`N#CCC1(n2cc(-c3ncnc4[nH]ccc34)cn2)CN(C2CCN(C(=O)Nc3ccc(F)cc3C(F)(F)F)CC2)C1` [Example 6, 4-{3-(Cyanomethyl)-3-[4-(7H-pyrrolo[2,3-d]pyrimidin-4-yl)-1H-pyrazol-1-yl]azetidin-1-yl}-N-[4-fluoro-2-(trifluoromethyl)phenyl]piperidine-1-carboxamide] displayed a 50% inhibitory concentration (IC50) in assay [1] of under 10 nM. Moreover, the JAK2/JAK1 in assay [2] was over 10.
On the same counts, the results for `N#CCC1(n2cc(-c3ncnc4[nH]ccc34)cn2)CN(C2CCN(C(=O)c3ccnc(C(F)(F)F)n3)CC2)C1` [Example 7, [3-[4-(7H-pyrrolo[2,3-d]pyrimidin-4-yl)-1H-pyrazol-1-yl]-1-(1-{[2-(trifluoromethyl)pyrimidin-4-yl]carbonyl}piperidin-4-yl)azetidin-3-yl]acetonitrile] are under 10 nM and over 10.
With `N#CC[C@]1(n2cc(-c3ncnc4[nH]ccc34)cn2)C[C@H](N2CCN(C(=O)c3ccnc(C(F)(F)F)n3)CC2)C1` [Example 8, [trans-1-[4-(7H-pyrrolo[2,3-d]pyrimidin-4-yl)-1H-pyrazol-1-yl]-3-(4-{[2-(trifluoromethyl)pyrimidin-4-yl]carbonyl}piperazin-1-yl)cyclobutyl]acetonitrile], the IC50 in assay [1] was under 10 nM. In assay [2], the JAK2/JAK1 was over 10.
With `N#CC[C@]1(n2cc(-c3ncnc4[nH]ccc34)cn2)C[C@H](N2CCC(Oc3cc(CN4CC(O)C4)cc(C(F)(F)F)n3)CC2)C1` [Example 9, {trans-3-(4-{[4-[(3-hydroxyazetidin-1-yl)methyl]-6-(trifluoromethyl)pyridin-2-yl]oxy}piperidin-1-yl)-1-[4-(7H-pyrrolo[2,3-d]pyrimidin-4-yl)-1H-pyrazol-1-yl]cyclobutyl}acetonitrile], the 50% inhibitory concentration (IC50) in assay [1] was under 10 nM. The JAK2/JAK1 in assay [2] is over 10.
Consider `N#CC[C@]1(n2cc(-c3ncnc4[nH]ccc34)cn2)C[C@H](N2CCC(Oc3cc(CN4CCC[C@H]4CO)cc(C(F)(F)F)n3)CC2)C1` [Example 10, {trans-3-(4-{[4-{[(2S)-2-(hydroxymethyl)pyrrolidin-1-yl]methyl}-6-(trifluoromethyl)pyridin-2-yl]oxy}piperidin-1-yl)-1-[4-(7H-pyrrolo[2,3-d]pyrimidin-4-yl)-1H-pyrazol-1-yl]cyclobutyl}acetonitrile], for which the IC50 in assay [1] was under 10 nM. For the same compound, the JAK2/JAK1 in assay [2] is over 10.
The corresponding values for `N#CC[C@]1(n2cc(-c3ncnc4[nH]ccc34)cn2)C[C@H](N2CCC(Oc3cc(CN4CCC[C@@H]4CO)cc(C(F)(F)F)n3)CC2)C1` [Example 11, {trans-3-(4-{[4-{[(2R)-2-(hydroxymethyl)pyrrolidin-1-yl]methyl}-6-(trifluoromethyl)pyridin-2-yl]oxy}piperidin-1-yl)-1-[4-(7H-pyrrolo[2,3-d]pyrimidin-4-yl)-1H-pyrazol-1-yl]cyclobutyl}acetonitrile] are under 10 nM and over 10.
On the same counts, the results for `C[C@H](NC(=O)c1cc(F)c(N2CC(CC#N)(n3cc(-c4ncnc5[nH]ccc45)cn3)C2)cc1F)C(F)(F)F` [Example 14, 4-{3-(Cyanomethyl)-3-[4-(7H-pyrrolo[2,3-d]pyrimidin-4-yl)-1H-pyrazol-1-yl]azetidin-1-yl}-2,5-difluoro-N-[(1S)-2,2,2-trifluoro-1-methylethyl]benzamide] are under 10 nM and over 10.
The compound `N#CCC1(n2cc(-c3ncnc4[nH]ccc34)cn2)CN([C@H]2CC[C@@H](Oc3cc(CCO)nc(C(F)(F)F)n3)CC2)C1` [Example 16, {1-(cis-4-{[6-(2-hydroxyethyl)-2-(trifluoromethyl)pyrimidin-4-yl]oxy}cyclohexyl)-3-[4-(7H-pyrrolo[2,3-d]pyrimidin-4-yl)-1H-pyrazol-1-yl]azetidin-3-yl}acetonitrile] came in with an IC50 in assay [1] of under 10 nM. Moreover, in assay [2], the JAK2/JAK1 is over 10.
In assay [1], `CCNCc1cc(O[C@H]2CC[C@@H](N3CC(CC#N)(n4cc(-c5ncnc6[nH]ccc56)cn4)C3)CC2)nc(C(F)(F)F)c1` [Example 17, {1-(cis-4-{[4-[(ethylamino)methyl]-6-(trifluoromethyl)pyridin-2-yl]oxy}cyclohexyl)-3-[4-(7H-pyrrolo[2,3-d]pyrimidin-4-yl)-1H-pyrazol-1-yl]azetidin-3-yl}acetonitrile] had a 50% inhibitory concentration (IC50) of under 10 nM. Further, the JAK2/JAK1 in assay [2] was over 10.
In assay [1], `CC(C)(O)c1cc(O[C@H]2CC[C@@H](N3CC(CC#N)(n4cc(-c5ncnc6[nH]ccc56)cn4)C3)CC2)nc(C(F)(F)F)c1` [Example 18, {1-(cis-4-{[4-(1-hydroxy-1-methylethyl)-6-(trifluoromethyl)pyridin-2-yl]oxy}cyclohexyl)-3-[4-(7H-pyrrolo[2,3-d]pyrimidin-4-yl)-1H-pyrazol-1-yl]azetidin-3-yl}acetonitrile] showed a 50% inhibitory concentration (IC50) of under 10 nM. Besides, the JAK2/JAK1 in assay [2] is listed as over 10.
Compound `N#CCC1(n2cc(-c3ncnc4[nH]ccc34)cn2)CN([C@H]2CC[C@@H](Oc3cc(CN4CC[C@@H](O)C4)cc(C(F)(F)F)n3)CC2)C1` [Example 19, {1-(cis-4-{[4-{[(3R)-3-hydroxypyrrolidin-1-yl]methyl}-6-(trifluoromethyl)pyridin-2-yl]oxy}cyclohexyl)-3-[4-(7H-pyrrolo[2,3-d]pyrimidin-4-yl)-1H-pyrazol-1-yl]azetidin-3-yl}acetonitrile] displayed an IC50 in assay [1] of under 10 nM. Further, in assay [2], the JAK2/JAK1 is listed as over 10.

For orientation: IC50 means the concentration needed to halve the response being measured. The low end stands for greater potency in that assay, the high end for weaker potency in that assay.
